For two compounds, Ki and EC50 results are on record in patent publication US7592366B2, “Therapeutic compounds” (Allergan, Inc., priority 2006, dated 2009).

The structures appear in SMILES notation.

One assay concerns the target T1, EP4 receptors (Homo sapiens, UniProt P35408).
T1 construct: expressed in transfected cells; host or cells: HEK-293
Put plainly: Radioligand binding [3H]PGE2, EP4 Ki. The note with it: [3H]PGE2 competition, HEK-293 cells expressing EP4. As for the experimental part: (§1) HEK-293 cells stably expressing the human or feline FP receptor, or EP1, EP2, or EP4 receptors were washed with TME buffer, scraped from the bottom of the flasks, and homogenized for 30 sec using a Brinkman PT 10/35 polytron. TME buffer was added to achieve a final 40 ml volume in the centrifuge tubes (the composition of TME is 100 mM TRIS base, 20 mM MgCl2, […]; 10N HCl is added to achieve a pH of 7.4).
(§2) The cell homogenate was centrifuged at 19000 r.p.m. for 20 min at 4° C. using a Beckman Ti-60 rotor. The resultant pellet was resuspended in TME buffer to give a final 1 mg/ml protein concentration, as determined by Biorad assay. Radioligand binding competition assays vs. [^3H-]17-phenyl PGF2α (5 nM) were performed in a 100 μl volume for 60 min. Binding reactions were started by adding plasma membrane fraction. The reaction was terminated by the addition of 4 ml ice-cold TRIS-HCl buffer and rapid filtration through glass fiber GF/B filters using a Brandel cell harvester. The filters were washed 3 times with ice-cold buffer and oven dried for one hour.
(§3) [^3H-] PGE2 (specific activity 180 Ci mmol) was used as the radioligand for EP receptors. [^3H] 17-phenyl PGF2α was employed for FP receptor binding studies. Binding studies employing EP1, EP2, EP4 and FP receptors were performed in duplicate in at least three separate experiments. A 200 μl assay volume was used. Incubations were for 60 min at 25° C. and were terminated by the addition of 4 ml of ice-cold 50 mM TRIS-HCl, followed by rapid filtration through Whatman GF/B filters and three additional 4 ml washes in a cell harvester (Brandel). Competition studies were performed using a final concentration of 5 nM [^3H]-PGE2, or 5 nM [^3H] 17-phenyl PGF2α and non-specific binding determined with 10^−5M of unlabeled PGE2, or 17-phenyl PGF2α, according to receptor subtype studied.

Assay [1] deals with T2, EP2 (Homo sapiens, UniProt P43116). Put plainly: cAMP assay, EP2. Details: expressed in transfected cells; host or cells: HEK-EBNA. To be noted: HEK-EBNA cells expressing EP2. In kind it is cell-based. The method, then: A 384-well drug plate was prepared to contain 6 test compounds, PGE2 and cAMP in 16 serial dilutions in triplicate, using a Biomek station. HEK-EBNA cells expressing a target PG receptor subtype (EP2 or EP4) were suspended in a stimulation buffer (HBSS, 0.1% BSA, 0.5 mM IBMX and 5 mM HEPES, pH 7.4) in a density of 10^4 cells/5 μl. The reaction was initiated by mixing 5 μL drug dilutions with 5 μl of HEK-EBNA cells in a well, carried out for 30 min at room temperature, and followed by the addition of 5 μl anti-cAMP acceptor beads in the control buffer with Tween-20 (25 mM NaCl, 0.03% Tween-20, 5 mM HEPES, pH7.4). After 30 min in the dark at room temperature, the mixtures were incubated with 15 μl biotinylated-cAMP/strepavidin donor beads in Lysis/Detection buffer (0.1% BSA, 0.3% Tween-20 and 5 mM HEPES, pH7.4) for 45 min at the room temperature. Fluorescence changes were read using a Fusion-alpha HT microplate reader.
T2 sequence (P43116 whole entry): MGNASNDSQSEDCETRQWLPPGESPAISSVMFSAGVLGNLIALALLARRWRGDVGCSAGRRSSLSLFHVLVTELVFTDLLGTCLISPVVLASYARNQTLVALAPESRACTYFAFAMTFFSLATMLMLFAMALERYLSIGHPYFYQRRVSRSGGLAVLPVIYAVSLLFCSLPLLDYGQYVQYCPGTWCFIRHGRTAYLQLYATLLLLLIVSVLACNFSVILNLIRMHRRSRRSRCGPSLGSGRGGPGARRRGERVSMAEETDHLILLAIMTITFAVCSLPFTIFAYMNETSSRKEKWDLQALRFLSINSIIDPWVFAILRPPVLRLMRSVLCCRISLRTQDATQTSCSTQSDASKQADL
In general terms: cAMP levels reflect the balance of adenylyl cyclase and phosphodiesterase activity.

The target of assay [2] is T2, EP2. The experiment in a line: Competition binding [3H]PGE2, EP2 Ki. On the set-up: expressed in transfected cells; host or cells: HEK 293. To be noted: [3H]PGE2 competition, HEK 293 cells expressing human EP2. As for the experimental part:
Competition binding experiments were performed in a medium containing Hank's balanced salt solution, Hepes 20 mM, pH 7.3, membranes (˜60 μg protein) or 2×10^5 cells from HEK 293 cells stably expressing human EP2 receptors, [^3H]PGE2 (10 nM) and various concentrations of test compounds in a total volume of 300 μl. Reaction mixtures were incubated at 23° C. for 60 min, and were filtered over Whatman GF/B filters under vacuum. Filters were washed three times with 5 ml ice-cold buffer containing 50 mM Tris/HCl (pH 7.3). Non-specific binding was estimated in the presence of excess unlabeled PGE2 (10 μM). Binding data fitted to the binding model for a single class of binding sites, using nonlinear regression analysis. IC50 values thus obtained were converted to Ki using the equation of Ki=(IC50/(1+[L]/KD) where [L] represents PGE2 concentration (10 nM) and KD the dissociation constant for [^3H]PGE2 at human EP2 receptors (40 nM).
as §1, §2, §3

T1 sequence (P35408 whole entry): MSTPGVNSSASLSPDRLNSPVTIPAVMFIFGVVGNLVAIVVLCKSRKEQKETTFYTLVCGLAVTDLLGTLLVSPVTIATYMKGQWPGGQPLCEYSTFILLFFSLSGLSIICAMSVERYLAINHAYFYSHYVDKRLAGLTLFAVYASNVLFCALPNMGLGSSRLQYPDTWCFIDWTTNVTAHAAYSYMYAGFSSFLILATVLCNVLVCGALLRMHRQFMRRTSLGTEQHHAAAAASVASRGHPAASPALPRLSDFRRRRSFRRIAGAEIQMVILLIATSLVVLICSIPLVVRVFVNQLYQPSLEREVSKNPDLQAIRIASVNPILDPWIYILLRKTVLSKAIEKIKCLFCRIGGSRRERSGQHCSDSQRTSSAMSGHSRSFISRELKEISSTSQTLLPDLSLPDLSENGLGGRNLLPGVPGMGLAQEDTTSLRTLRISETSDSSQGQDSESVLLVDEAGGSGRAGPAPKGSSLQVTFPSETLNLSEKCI

As usually defined, the Ki is a measure of affinity in units of concentration, obtained from inhibition or displacement. A high value points to lower affinity. As usually defined, the EC50 is the midpoint of the concentration-response curve. For `O=C(O)c1ccc(CCC[C@@H]2[C@@H](CCc3cc(Cl)cc(Cl)c3)[C@@H](O)C[C@H]2Cl)s1` [compound 17, 5-(3-((1R,2R,3S,5R)-5-chloro-2-(3,5-dichlorophenethyl)-3-hydroxycyclopenty)propyl)thiophene-2-carboxylic acid], the Ki is over 10000 nM on EP4 receptors and 22 nM at EP2 [2]. For the same compound, the EC50 at EP2 [1] was found to be 4 nM.

On to `O=C(O)c1ccc(CCC[C@@H]2[C@@H](CCc3cc(F)cc(F)c3)[C@H](O)C[C@H]2Cl)s1` [11d, 5-(3-((1R,2R,3R,5R)-5-chloro-2-(3,5-difluorophenethyl)-3-hydroxycyclopentyl)propyl)thiophene-2-carboxylic acid], for which the Ki was 2570 nM on EP4 receptors and 2 nM at EP2 [2]. On EP2 [1], this compound showed an EC50 of 0.1 nM.
